Experimental data reported in patent US8470861B2, “Mitochondria-targeted antioxidant prodrugs and methods of use” (University of Rochester, priority 2005, dated 2013).
Each block holds one molecule with its values, some of them ahead of it.

Assays:
[1] = test system: IMR90 cells; details: cited from earlier work
[2] = test system: isolated rat liver mitochondria (mitochondrial β-oxidation); assay: Mitochondrial biotransformation of alkanoic-acid-based prodrugs; details: for effect of added carnitine on biotransformation: presence vs. absence of added carnitine; for biotransformation / substrate quality for β-oxidation (in words): isolated rat liver mitochondria
Text: Mitochondrial Biotransformation of Alkanoic-Acid-Based Prodrugs. Rat liver mitochondria were isolated from livers freshly collected from adult male Sprague-Dawley rats (190-225 g) and were used as soon as possible after isolation (Nadtochiy, et al. (2007) J. Mol. Cell. Cardiol. 42:812; Hoffman et al. (2007) Am. J. Physiol. 292:H101). Livers were removed immediately after CO2 euthanasia of the animal, minced, and homogenized with a glass Dounce homogenizer with loose-fitting pestle in liver mitochondria isolation medium that contained 0.25 M sucrose, 2.0 mM HEPES, 1.0 mM EGTA (pH 7.4) at 4° C. The homogenate was centrifuged once at 1000×g for 3 minutes at 4° C. to remove cellular debris. After removal of visible surface fat, the resulting supernatant was centrifuged at 10,000×g for 10 minutes at 4° C. The supernatant was discarded after removing visible surface fat, and the pellet was suspended in ice-cold liver mitochondria isolation medium and centrifuged again at 10,000×g for 10 minutes at 4° C. The mitochondrial pellet thus obtained was suspended in Ca^2+-depletion buffer (1 mM EGTA, 10 mM NaCl, 5 mM succinate, 195 mM mannitol, 25 mM sucrose, 40 mM HEPES, pH 7.2) at room temperature) and incubated with gentle stirring first at room temperature for 10 minutes and then in an ice bath for 5 minutes. Ca^2+-Depletion buffer serves to chelate calcium, activate mitochondrial respiration, and activate the Na^+/Ca^2+ exchanger. The mitochondrial suspension was then centrifuged at 10,000×g for 10 minutes at 4° C., and the pellet was suspended in liver swelling buffer that contained 195 mM mannitol, 25 mM sucrose, 40 mM HEPES (pH 7.2) at 4° C.; liver swelling buffer allows for ionic/osmotic equilibrium through the remainder of the preparation. The suspension was centrifuged at 10,000×g for 10 minutes at 4° C., followed by the removal of light mitochondria and a final centrifugation at 10,000×g for 10 minutes at 4° C. The mitochondrial pellet was suspended in liver swelling buffer at 4° C. Protein concentrations were determined with the Lowry reagent.^56
The quality of mitochondrial preparations was determined by estimating the respiration control ratio (RCR, i.e., the ratio of state 3 vs. state 4 respiration rates) with a Clark-type oxygen electrode (Oxygraph, Hansatech Instruments, Norfolk, England). The incubation mixtures contained 120 mM KCl, 25 mM sucrose, 5 mM MgCl2, 5 mM KH2PO4, 1 mM EGTA, 10 mM HEPES, 10 mM succinate, 2.5 mg/mL fat-free bovine serum albumin, 0.5-0.8 mg/mL mitochondrial protein, 5 μM rotenone, and 100 μM ADP (pH 7.4) and were incubated at 37° C.
Reaction mixtures were prepared in disposable glass culture tubes and contained 20 mM HEPES, 1 mM EGTA, 100 mM KCl, 5 mM KH2PO4, 10 mM MgCl2, 25 mM sucrose, 2 mM L-carnitine (if added), 5 mM ATP, 10 mg/mL bovine serum albumin, 1.4 mM dithiothreitol, 0.13 mM CoA, and 1 mM substrate (pH 7.4). Reaction mixtures were incubated at 37° C. with gentle stirring. Mitochondrial protein (approximately 5 mg/mL) was added, and the samples were incubated for 5 minutes with gentle mixing, which was maintained during the incubation period, to keep the homogenate suspended. After 5 minutes of incubation, the substrates were added. The substrates were dissolved in methanol and added to the reaction mixtures to a final concentration of 1 mM, unless otherwise stated; the final methanol concentration was ≦0.5%. ω-(1-Methyl-1H-imidazol-2-ylthio)alkanoic acids 28a and 28b were dissolved in distilled water and added to the reaction mixtures to a final concentration of 1 mM. Samples were incubated at 37° C. for 30 minutes with constant gentle mixing, and samples were collected for analysis at t=0, 10, 20, and 30 minutes.
Phenolic metabolite formation, i.e., phenol, 2-methylphenol, 2,6-dimethylphenol, 3,5-dimethylphenol, and 2,6-diisopropylphenol, from ω-(phenoxy)alkanoic acids, was quantified by HPLC analysis.

[3] = test system: isolated rat cardiomyocytes; assay: Cytoprotective effects in cardiomyocytes, hypoxia-reoxygenation protocol (Trypan Blue exclusion); type: cell-based; details: for cytoprotective effect in presence of etomoxir: compound 1 μM + etomoxir 20 μM; for cytoprotection: compounds 1 μM, etomoxir 20 μM
Experimental: Upper panel: Alkanoic acids 28a and 28b (1 μM), methimazole (1 μM), and etomoxir (20 μM) were incubated with cardiomyocytes in a hypoxia-reoxygenation protocol. CON, control; HR, hypoxia-reoxygenation; Eto, etomoxir. Statistical analysis (one-way ANOVA, n=3): CON vs. HR, p<0.05; HR vs. HR+28a, p<0.05; CON vs. HR+28a, NS; HR+28a vs. HR+28a+Eto, p<0.05; HR vs. HR+28b, p<0.05; HR+28b vs. HR+28b+Eto, p<0.05; HR vs. Methimazole, NS. Lower panel: Alkanoic acids 25c and 30a (1 μM), 2,6-dimethylphenol (1 μM), and etomoxir (20 μM) were incubated with cardiomyocytes in a hypoxia-reoxygenation protocol. CON, control; HR, hypoxia-reoxygenation; Eto, etoximir. Statistical analysis (one-way ANOVA, n=3): CON vs. HR, p<0.05; HR vs. HR+25c, p<0.05; CON vs. HR+25c, p<0.05; HR+25c vs. HR+25c+Eto, p<0.05; HR vs. HR+30a, p<0.05; HR+30a vs. HR+30a+Eto, p<0.05; HR vs. 2,6-Dimethylphenol, NS.
Primary ventricular cardiomyocytes were isolated from adult rats and viability was assessed […]. All cells were used within 1 hour of isolation and were 80-85% viable and rod-shaped prior to the experiments. Cell viability was quantified with the Trypan Blue exclusion test. The cells were subjected to a hypoxia-reoxygenation protocol designed to simulate cardiac ischemia-reperfusion injury.

[4] = cited from earlier work
[5] = 5 mg/kg daily for two weeks in feed, cited from earlier work

SMILES: ONCc1ccccc1 [N-benzylhydroxylamine]
concentration that delays senescence (as low as) [1]: 10 µM

effect of added carnitine on biotransformation [2]: no significant difference
SMILES: O=C(O)CCOc1ccccc1 [Compound 25a, 3-(Phenoxy)propanoic acid]

SMILES: CNO [N-methylhydroxylamine]
concentration that delays senescence (as low as) [1]: 10 µM

rate of biotransformation relative to saturated analog 25c ([2]; 30a vs. 25c): approximately 20 fold
SMILES: Cc1cccc(C)c1O/C=C/C(=O)O [Compound 30a, (E)-3-(2,6-dimethylphenoxy)acrylic acid]
cytoprotective effect in presence of etomoxir [3]: blocked by etomoxir | cytoprotection [3]: cytoprotective

biotransformation / substrate quality for β-oxidation (in words) [2]: no biotransformation
SMILES: Cc1cccc(C)c1O/C=C\C(=O)O [(Z)-3-(2,6-dimethylphenoxy)acrylic acid]

SMILES: Cc1c(S)ncn1C [1,5-dimethyl-4-mercaptoimidazole]
pKa of the thiol group [4]: 2.3

SMILES: Cn1ccnc1SCCC(=O)O [Compound 28a, 3-(1-methyl-1H-imidazol-2-ylthio)propanoic acid]
cytoprotective effect in presence of etomoxir [3]: blocked by etomoxir | cytoprotection [3]: significant cytoprotection

SMILES: Cn1ccnc1SCCCCC(=O)O [Compound 28b, 5-(1-Methyl-1H-imidazol-2-ylthio)pentanoic acid]
cytoprotective effect in presence of etomoxir [3]: blocked by etomoxir | cytoprotection [3]: significant cytoprotection

SMILES: Cn1ccnc1S [methimazole, 2-Mercapto-1-methylimidazole, reference compound]
cytoprotection [3]: failed to provide cytoprotection

biotransformation / substrate quality for β-oxidation (in words) [2]: poor substrates
SMILES: Cc1cccc(C)c1OCCC(=O)O [Compound 25c, 3-(2,6-Dimethylphenoxy)propanoic acid]
cytoprotective effect in presence of etomoxir [3]: blocked by etomoxir | cytoprotection [3]: cytoprotective

SMILES: CC(C)(C)NO [N-tert-butylhydroxylamine]
concentration that delays senescence (as low as) [1]: 10 µM | radiation sensitivity ([5]; 8 Gy whole-body irradiation): decreased the radiation sensitivity | compound-associated toxicity [5]: no compound-associated toxicity was observed

biotransformation / substrate quality for β-oxidation (in words) [2]: poor substrates
SMILES: Cc1cccc(C)c1OCCCCC(=O)O [Compound 26c, 5-(2,6-Dimethylphenoxy)pentanoic acid]

SMILES: CCOC(=O)[C@@]1(CCCCCCOc2ccc(Cl)cc2)CO1 [etomoxir, reference compound]
cytoprotection [3]: no cytoprotective effect

SMILES: CC(C)c1cccc(C(C)C)c1O/C=C/C(=O)O [Compound 30b, (E)-3-(2,6-diisopropylphenoxy)acrylic acid]
biotransformation / substrate quality for β-oxidation (in words) [2]: No quantifiable biotransformation

biotransformation / substrate quality for β-oxidation (in words) [2]: much better substrate | effect of added carnitine on biotransformation [2]: no significant difference
SMILES: Cc1cccc(C)c1OCSCCC(=O)O [Compound 29, 3-[(2,6-Dimethylphenoxy)methylthio]propanoic acid]
